According to patent publication US20240041042A1, “1-(PYRIDYL)-5-AZINYLPYRAZOLE DERIVATIVES, AND THEIR USE FOR CONTROL OF UNDESIRED PLANT GROWTH” (Bayer Aktiengesellschaft, priority 2020, published 2024):
Like-named read-outs stand apart in the source and are kept apart here. Values belong to the compound of their own block, whether it stands above or below them.

How the values were obtained:
Assay type in all cases: in vivo
[1] = tested on: Triticum aestivum (TRZAS); details: crop plant compatibility, effect vs untreated controls
Summary of the method: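 Effects were read visually as % versus untreated controls (0% = no effect, 100% = death) about 3 weeks post-treatment. Application was a post-emergence spray at the one-leaf stage of WP/EC formulations with 0.5% additive at 600 l/ha. Different dosages are denoted a, b and c.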

Oryza sativa (ORYSA) = details: crop plant compatibility; for Pre-emergence action against ORYSA: 20 g/ha, effect vs untreated controls
Summary of the method: (§1)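 Crop injury rated visually in percent against untreated plants roughly 3 weeks after treatment (0% no effect, 100% plants dead). Compounds, as WP or EC with 0.5% additive in 600 l/ha water, were applied to the covering soil right after sowing; greenhouse growth. Suffixes a, b, c denote different dosages.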

[2] = tested on: Triticum aestivum (TRZAS); details: 20 g/ha; crop plant compatibility, effect vs untreated controls
Summary of the method: as §1

Glycine max (GLXMA) = details: 20 g/ha; crop plant compatibility, effect vs untreated controls
Summary of the method: as §1

Post-emergence action against TRZAS in % ([1]; 20 g/ha): 10%
Pre-emergence action against ORYSA (Oryza sativa (ORYSA)): 0%
Pre-emergence action against TRZAS [2]: 10%
Pre-emergence action against GLXMA (Glycine max (GLXMA)): 10%
SMILES: O=C(O)COc1nn(-c2ncccc2F)c(-c2ccc(F)nc2)c1Br [Example I-17]

Pre-emergence action against ORYSA (Oryza sativa (ORYSA)): 0%
SMILES: CCOC(=O)COc1nn(-c2ccccn2)c(-c2ccc(F)nc2)c1Br [Example I-02]

Pre-emergence action against ORYSA in % (Oryza sativa (ORYSA); pre-emergence, 80 g/ha, in comparison to untreated controls): 20%
SMILES: COCCOC(=O)COc1nn(-c2ccccn2)c(-c2ccc(F)nc2)c1Br [Example I-96]

Post-emergence action against TRZAS in % ([1]; 80 g/ha): 20%
SMILES: COC(=O)CNC(=O)[C@@H](C)Oc1nn(-c2ccccn2)c(-c2cncc(F)c2)c1Br [Example I-187]
